Common to all, as to format: cell-based, human
Experiment [1] deals with MM.1S cells adherent to BMSCs. Description: Paracrine MM.1S cell growth on BMSCs ([3H]-TdR uptake). Particulars: 0.4-10 μM, 48 h, dose dependent; FIG. 12B. The method, then:
Proliferation was measured as previously described (Hideshima et al., Blood 96:2943 (2000)). MM cells (3×10^4 cells/well) were incubated in 96-well culture plates (Costar, Cambridge, Mass.) in the presence of media, PS-341, compound 1 and/or Dex or recombinant human IL-6 (Genetics Institute, Cambridge, Mass.) for 48 h at 37° C. DNA synthesis was measured by [^3H]-thymidine ([^3H]-TdR, NEN Products, Boston, Mass.) uptake. Cells were pulsed with [^3H]TdR (0.5 μCi/well) during the last 8 h of 48 h cultures. All experiments were performed in triplicate.
(§1) To evaluate growth stimulation and signaling in MM cells adherent to BMSCs, 3×10^4 MM.1S cells were cultured in BMSC coated 96-well plates for 48 h, in the presence or absence of compound 1. DNA synthesis was measured as described above. The Duoset ELISA (R&D System) was used to measure IL-6 in supernatants of 48 h cultures of BMSCs with or without MM.1S cells, in the presence or absence of compound 1.

In a further experiment the test system is IL-6 secretion in BMSCs. As to the kind of experiment: IL-6 secretion in BMSC cultures with or without MM.1S cells (ELISA). Particulars: 0.4-10 μM, 48 h, dose dependent; FIG. 12A.
Source text: BM specimens were obtained from patients with MM. Mononuclear cells (MNCs) separated by Ficoll-Hipaque density sedimentation were used to established long-term BM cultures, as previously described (Uchiyama et al., Blood 82:3712-3720 (1993)). When an adherent cell monolayer had developed, cells were harvested in Hank's Buffered Saline Solution (HBSS) containing 0.25% trypsin and 0.02% EDTA, washed, and collected by centrifugation.
as §1
(In general: An ELISA detects its analyte on a solid surface through an enzyme-linked reagent.)

The test system of another experiment is U266 cells. As to the kind of experiment: Cell cycle profile by PI staining and flow cytometry, U266. Particulars: 10 μM for 24, 36 and 48 h, FIG. 4. Here is the method:
For cell cycle analysis, MM cells cultured for 24-48 h in compound 1 (10 μM), Dex (1 μM); IL-6 (20 ng/mL), or control media were harvested, washed with phosphate-buffered saline (PBS), fixed with 70% ethanol, and treated with 10 μg/mL of RNase (Roche Diagnostics Corp., Indianapolis, Ind.). Cells were then stained with propidium iodine (PI, Sigma) (5 μg/mL). For detection of ICAM-1 expression, MM cells cultured in TNFα (5 ng/mL) in the presence or absence of compound 1 (10 μM) were harvested, washed with PBS, and stained with mouse IgG isotype control or FITC-conjugated mouse anti-human CD54 Ab. Both cell cycle profile and ICAM-1 expression were determined using an Epics (Coulter Immunology, Hialeah, Fla.) flow cytometer, as in prior studies (Hideshima et al., Oncogene 20:4519 (2001)).

Experiment [2] deals with IκBα phosphorylation and degradation in patient MM cells. Description: Immunoblot of IκBα phosphorylation and degradation triggered by TNFα in patient cells. Particulars: 10 μM for 90 min, TNFα 5 ng/mL, FIG. 1C. Here is the method: Dex-sensitive (MM.1S) human MM cell line was kindly provided by Dr. Steven Rosen (Northwestern University, Chicago, Ill.). RPMI8226 and U266 human MM cells were obtained from American Type Culture Collection (Rockville, Md.). All MM cell lines cultured in RPMI-1640 containing 10% fetal bovine serum (FBS, Sigma Chemical Co., St. Louis, Mo.), […], 100 U/mL penicillin (Pen) and 100 μg/mL streptomycin (Strep) (GIBCO, Grand Island, N.Y.). Patient MM cells were purified from patient BM aspirates using RosetteSep separation system (StemCell Technologies, Vancouver, Canada). The purity of MM cells was confirmed by flow cytometry using PE-conjugated anti-CD138 antibody (Beckton Dickinson Co.).
(§2) MM cells were cultured with PS-341 or compound 1; harvested; washed; and lysed using lysis buffer: 50 mM Tris-HCl (pH 7.4), 150 mM NaCl, 1% NP-40, 5 mM EDTA, 5 mM NaF, 2 mM Na3VO4, 1 mM PMSF, 5 μg/mL leupeptin, and 5 μg/mL aprotinin. For detection of phospho-IκBα, IκBα, phospho-MAPK, phospho-STAT3, ERK2 or alpha-tubulin, cell lysates were subjected SDS-PAGE, transferred to PVDF membrane (Bio-Rad Laboratories, Hercules, Calif.), and immunoblotted with anti-phospho-IκBα, -IκBα, -phospho-MAPK, or -phospho-STAT3 Abs (Cell Signaling, Beverly, Mass.), and anti-alpha-tubulin (Sigma) Abs.
Inhibition of IκBα phosphorylation by compound 1 was assayed in MM.1S and patient MM cells triggered by TNFα. […]
On the technique in general: In western blotting, separated proteins are transferred to a membrane and probed.

Another experiment relates to MM.1S cells. Description: Growth inhibition / viability by MTT assay in MM.1S cells with TNFα. The method, then: The inhibitory effect of PS-341 and compound 1 on MM growth was assessed by measuring 3-(4,5-dimethylthiazol-2-yl)-2,5-diphenyl […] bromide (MTT) dye absorbance of the cells. Cells from 48 h cultures were pulsed with […] of 5 mg/mL MTT to each well for the last 4 h of 48 h cultures, followed by 100 μL isopropanol containing 0.04N HCl. Absorbance was measured at 570 nm using a spectrophotometer (Molecular Devices Corp., Sunnyvale Calif.).
On the technique in general: Tetrazolium dyes change colour on reduction, which living cells bring about.

Experiment [3] concerns IκBα phosphorylation and degradation in MM.1S cells. As to the kind of experiment: Immunoblot of IκBα phosphorylation and degradation triggered by TNFα in MM.1S cells. Here is the method: as §2
Inhibition of IκBα phosphorylation by compound 1 was assayed in MM.1S and patient MM cells triggered by TNFα. […] To study the dose-dependent effect of compound 1, MM.1S cells were pre-treated with 1.25-40 μM compound 1 for 90 min, and then stimulated by TNFα (5 ng/mL).
The effect of Dex, compound 1, PS-341 and/or IL-6 on TNFα induced phosphorylation of IκBα in MM.1S cells was next examined. […] In contrast compound 1, in the presence or absence of IL-6, inhibits phosphorylation of IκBα. Dex inhibits TNFα-induced degradation of IκBα, whereas IL-6 blocks this effect. Both PS-341 and compound 1 inhibit degradation of IκBα, in the presence or absence of IL-6.

Usually inhibition stands for how much of the control response was suppressed.

As to `O=C(Nc1cc(Cl)cc2c1[nH]c1cnccc12)c1cccnc1` [compound 1, N-(6-chloro-9H-β-carbolin-8-yl)-nicotinamide], the “increased MM.1S cell growth triggered by adherence to BMSCs” value in experiment [1] is listed as “inhibits”. Also, in the experiment with IL-6 secretion in BMSCs, the “constitutive secretion of IL-6 in BMSCs” value is “blocks” and the “increased IL-6 secretion triggered by adhesion of MM.1S cells to BMSCs” value is “blocks”. Further, the cell cycle profile entry in the experiment with U266 cells is given as “induced G1 growth arrest, but not apoptosis”. In experiment [2], the “phosphorylation and degradation of IκBα triggered by TNFα” value is on record as “inhibited”. Moreover, the inhibition at 10 µM in the experiment on MM.1S cells (Homo sapiens, MM1.S, TNFα 1 ng/mL in the presence of 10 μM compound 1, 48 h) amounted to 60%. In the experiment on MM.1S cells (TNFα 0.2 and 1 ng/mL in the presence of compound 1 2.5-10 μM, 48 h, p<0.001, FIG. 11), the “viability of MM.1S cells (MTT assay)” value is recorded as “significantly decreased”. In addition, the “TNFα-induced phosphorylation of IκBα” value in experiment [3] (Dex 1 μM 18 h, PS-341 5 μM 60 min, compound 1 10 μM 90 min, presence or absence of IL-6, TNFα 5 ng/mL 5 min, FIG. 7) is “inhibits”. In addition, the “TNFα-induced degradation of IκBα” value in experiment [3] (Dex 1 μM 18 h, PS-341 5 μM 60 min, compound 1 10 μM 90 min, TNFα 5 ng/mL 5 min, FIG. 7) is listed as “inhibit”. In experiment [3] (compound 1 pre-treatment 10 μM for 90 min, then TNFα 5 ng/mL, FIG. 1A), the “phosphorylation and degradation of IκBα” value is reported as “completely blocked”. For the same compound, in experiment [3] (pre-treated with 1.25-40 μM for 90 min, then TNFα 5 ng/mL, FIG. 1B), the “concentration at which phosphorylation of IκBα was completely inhibited” value is at least 5 µM.
